Test results from patent publication US20110190492A1, “DIAGNOSTIC PROBE FOR CONFORMATION DISEASE” (TOHOKU UNIVERSITY, priority 2005, published 2011).
Like-named read-outs stand apart in the source and are kept apart here.

Key:
amyloid β protein = biological target: T1, amyloid β protein (Homo sapiens, UniProt P05067); experiment: Staining test on a brain section of an Alzheimer disease patient (amyloid β protein); type: binding, human (Alzheimer disease patient); conditions: 100 μM compound in 50% ethanol, 10 minutes, fluorescence microscopy
T1 construct: from tissue; host or cells: paraffin-embedded human brain sections (temporal lobe, hippocampus) of Alzheimer disease patients
T1 sequence (P05067 672-713 limits assumed): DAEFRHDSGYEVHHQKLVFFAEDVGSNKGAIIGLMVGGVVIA
Text: (§1) (1) Brain specimens at the temporal lobe and the hippocampus of patients to which a definitive diagnosis of Alzheimer disease had been given, and those of normal senile persons were used. The specimens were given by our coworker, Fukushimura Hospital, Longevity Medicine Institute, and we were given their consent of use of the specimens for our study purpose by the bereaved of the patients (Fukushimura Hospital Ethical Review Board Approval No. 20).
(§2) (2) The paraffin-embedded brain tissue was cut into slices having a thickness of 6 μm or 8 μm, and extended and dried on a slide. The paraffin brain section was processed for paraffin removal in xylene twice for 10 minutes, 100% ethanol twice for 5 minutes, 90% ethanol for 5 minutes and running water for 10 minutes in that order.
(§3) (3) For pretreatment prior to the staining treatment with a compound of the invention, the sections were processed for autofluorescence removal with lipofuscin. First, the paraffin-removed sections were dipped in 0.25% KMnO4 solution for 20 minutes. These were washed with PBS, twice for 2 minutes, then dipped in 0.1% K2S2O5/oxalic acid solution for about 5 seconds, and then further washed with PBS, three times for 2 minutes.
(§4) (4) About 150 μl of a 100 μM solution of a compound of the invention dissolved in 50% ethanol was dropwise applied to the section and reacted for 10 minutes. After dipped five times in tap water, the section was entrapped with Fluor Save Reagent (Calbiochem), and analyzed through microscopy with a fluorescence microscope (Nikon, Eclipse 80i). The images were taken with a digital camera (Nikon Dxm 1200F or Photometrics' Cool SNAP ES).

neurofibrillary tangle = experiment: Staining test on a brain section of an Alzheimer disease patient (neurofibrillary tangle); type: binding, human (Alzheimer disease patient); conditions: 100 μM compound in 50% ethanol, 10 minutes, fluorescence microscopy
Text: as §1, §2, §3, §4

[1] = Acute toxicity test, intravenous administration to mice; type: in vivo; conditions: mice observed for 7 days
Experimental: The compounds of the invention were tested for their acute toxicity through intravenous administration thereof to mice. Four Crj:CD1 male mice formed one test group, and some test groups of those mice were used (the mean body weight of the mice of each group was from 31 to 32 g). A test compound was dissolved in a mixture of 1 N HCl, polyethylene glycol-400 and distilled water, or dissolved in DMSO, and then diluted with distilled water. This was administered to each mouse via its tail vein.

[2] = test system: histidine-requiring Salmonella typhimurium TA100 and TA98 strains; experiment: Mutagenicity test (reverse mutation test); type: cell-based
Experimental: In view of their use, it is desirable that the compounds of the invention have no mutagenicity or have little mutagenicity to a level causing no problem. For investigating the gene mutagenesis of the compounds of the invention, herein carried out was a reverse mutation test with histidine-requiring Salmonella typhimurium TA100 and TA98 strains. Two tests were carried out. One is a test for dose determination test; and the other is for mutagenicity.
The test methods and the mutagenicity of the compounds of the invention are mentioned below. In the dose determination test, six doses of 0.160, 0.800, 4.00, 20.0, 100 and 500 μg/plate (common ratio 5) were tried.
As a result of the dose determination test, when the mutagenicity of the test compound was admitted, then the actual test for mutagenicity was carried out, using the dose capable of giving an accurate dose-reaction curve. When no mutagenicity of the test compound was admitted in the dose determination test and when the growth inhibition of the test cells was admitted therein, then the dose to present the growth inhibition was taken as the maximum dose; and when the growth inhibition was not admitted, then a dose of 5000 μg/plate was taken as the maximum dose. With that, the actual test for mutagenicity was carried out on the level of 6 doses (common ratio 2).
First, a test compound was dissolved or suspended in DMSO, then diluted in order to prepare test compound liquids having a varying concentration.
100 μl of a test compound liquid or a negative control (DMSO) solution was put into a sterilized test tube. Then, for the case in the absence of a metabolic activation system (−S9mix), 500 μl of 0.1 mol/liter sodium-phosphate buffer (pH 7.4) was added to it; and for the case in the presence of a metabolic activation system (+S9mix), 500 μl of S9mix was added to it.
Next, 100 μl of the test strain suspension that had been cultivated with shaking at 37° C. for 8 hours was added to it, and preincubated in a shaking thermostat at 37° C. for 20 minutes. After shaken, 2 ml of top agar was added to it, and the contents were mixed.
Next, the mixture was poured onto a minimal glucose agar plate medium (plate) and spread uniformly thereon, then the top agar was solidified, and the plate was transferred into a thermostat and incubated at 37° C. for 48 hours.
Then, the number of the colonies grown through reverse mutation was counted.
For counting it, […]. After area correction and miss-counting correction, the number of the colonies was computed. When the colony analyzer could not be used owing to the deposition of the test compound or the cell growth inhibition, then the number of the colonies was counted with the naked eye.
In case where the number of the colonies through reverse mutation increased two times or more that of the negative control and where the dose dependency or the reproducibility of the increase was admitted, then the tested sample was decided as positive. When the sample was decided as positive, then the relative activity that indicates the relative comparative value of the intensity of the mutagenicity of the test compound was obtained according to the following formula:
Relative Activity={(number of colonies per plate having the concentration)−(number of colonies per negative control plate)}/the value of concentration (mg/plate).

Amyloid β protein 1-40 = biological target: T2, Amyloid β protein 1-40 (Homo sapiens, UniProt P05067); experiment: Fluorescence Congo red method; type: binding; conditions: 1 h, compound 10 μM, amyloid β protein 5 μM
T2 construct: Amyloid β protein 1-40 (bought from Peptide Laboratory); purchased Peptide Laboratory
T2 sequence (P05067 672-711): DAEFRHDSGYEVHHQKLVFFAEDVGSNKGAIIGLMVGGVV
Experimental: (1) Amyloid β protein 1-40 (bought from Peptide Laboratory) was dissolved in a phosphate buffer (pH 7.4) and left at 37° C. for 4 days.
(2) 50 μl of Congo red dissolved in the buffer was applied to a 96-well microplate (final concentration, 0.1, 0.3, 1 μM).
(3) 100 μl of amyloid β protein was added to it (final concentration 5 μM), and left as such for 30 minutes.
(4) 100 μl of a test compound dissolved in the buffer was added to it (final concentration, 10 and left as such for 60 minutes.
(5) Using a fluorescence microplate reader (Spectra Max 190 by Molecular Device), the sample was analyzed at the optimum exciting wavelength and the test wavelength that had been previously determined.
(6) The fluorescence intensity in the presence of the test compound, amyloid β protein and Congo red is represented by A; that in the presence of the test compound and Congo red is by B; that in the presence of the test compound and amyloid β protein is by C; and that in the presence of only the test compound is by D. The β structure recognition of the test compound is computed according to the following formula:
β structure recognition (%) of test compound={(A−B)/(C−D)}×100.

[3] = Brain permeability of [^18F]-labeled compound in mice; type: in vivo, male ICR mice; conditions: 2 minutes after intravenous administration, radioactivity
Experimental: The partitioning HPLC fraction containing [^18F]THK525, [^18F]THK702, [^18F]THK727 or [^18F]THK763, obtained through labeling production, was diluted with distilled water (about 20 mL), then loaded in Sep-Pak tC18 cartridge (by waters). The cartridge was washed with distilled water (5 to 10 mL), and then the labeled compound was eluted with EtOH (3 to 5 mL). A suitable amount of 5% Polysorbate 80/ethanol solution was added to the EtOH eluate, and the solvent was evaporated away with heating at 80° C. with a rotary evaporator. Thus obtained, a mixture of the labeled compound and Polysorbate 80 was dissolved in physiological saline, thereby preparing a labeled compound-containing physiological saline. Thus prepared, the radiochemical purity of the chemical solution was 95% or more.
[^18F]THK525, [^18F]THK702, [^18F]THK727 or […] to male ICR mice (6 to 7 weeks-age) via their tail vein. From the radioactivity deposition in the brain after 2 and 30 minutes, the brain permeability of the labeled compound was assessed. The radiochemical purity of the labeled compound-containing physiological saline used was at least 95%, and the relative radioactivity thereof was from 18.5 to 148 GBq/μmol; and from 1.11 to 2.22 MBq of the labeled compound was administered to one mouse. Regarding the assessment of the radioactivity deposition, the proportion of the radioactivity per the unit weight of the sample tissue to the overall radioactivity given to the test animal (% injected dose/g of tissue; % ID/g) was taken as the index. For measuring the radioactivity, used was a gamma counter (1480 WIZARD, by Perkin Elmer). The experiment protocol was as follows: A labeled compound was administered to mice via their tail vein. After 2 and 30 minutes, the cervical spine of the mouse was dislocated under ether anesthesia. Immediately, the blood was collected from its heart, and the whole brain (including cerebellum and brainstem) was taken out. The radioactivity and the tissue weight of each sample were measured, and from the data, % ID/g was computed.

SMILES	binding to amyloid β protein in the brain section of an Alzheimer disease patient (amyloid β protein)	binding to neurofibrillary tangle in the brain section of an Alzheimer disease patient (neurofibrillary tangle)	Maximum Permissible Dose [1]	Brain Permeability of [^18F]-labeled Compound: Brain [3]	Brain Permeability of [^18F]-labeled Compound: Plasma [3]	other results
CN1C=CC(=C/C=C2\C=Nc3ccccc32)C=C1 [THK-185, 3-[2-(1-methyl-1H-pyridin-4-ylidene)-ethylidene]-3H-indole]	bound to the amyloid β protein	bound to the amyloid β protein and the neurofibrillary tangle	–	–	–	–
CN(C)c1ccc(-c2nnc(-c3sc4ccccc4c3Cl)o2)cc1 [THK-258, [4-[5-(3-chloro-benzo[b]thiophen-2-yl)-[1,3,4]oxadiazol-2-yl]-phenyl]-dimethylamine]	bound to the amyloid β protein	bound to the amyloid β protein and the neurofibrillary tangle	–	–	–	–
CN1C=CC(=CC=C2C=CC(=O)C=C2)C=C1 [THK-317, 4-[2-(1-methyl-1H-pyridin-4-ylidene)-ethylidene]-cyclohexa-2,5-dienone]	bound to the amyloid β protein	bound to the amyloid β protein and the neurofibrillary tangle	–	–	–	–
OCC(CF)COc1ccc2nc(/C=C/c3cnc(N4CCOCC4)s3)oc2c1 (stereo not drawn) [THK-727, 2-fluoromethyl-3-[2-[2-(2-morpholin--yl-thiazol-5-yl)-vinyl]-benzoxazol-6-yloxy]-propan-1-ol]	The white space arrow indicates amyloid β protein	the white space arrow head indicates neurofibrillary tangle	≧10 mg/kg	–	–	relative activity ([2]; irrespective of the absence or presence of S9mix): minus; activity at 10 µM (Amyloid β protein 1-40; Congo red 0.1 μM, read-out: Binding Percentage of Compound in the presence of 0.1 μM CR): 73.6%; activity at 10 µM (Amyloid β protein 1-40; Congo red 0.3 μM, read-out: Binding Percentage of Compound in the presence of 0.3 μM CR): 35%; activity at 10 µM (Amyloid β protein 1-40; Congo red 1 μM, read-out: Binding Percentage of Compound in the presence of 1 μM CR): 3.1%
CNc1ncc(/C=C/c2nc3ccc(OC(CO)CF)cc3o2)s1 (stereo not drawn) [THK-761, (E)-6-[(1-fluoromethyl-2-hydroxy)ethoxy]-2-[2-[2-methylaminothiazol-5-yl]ethenyl]-benzoxazole]	The white space arrow indicates amyloid β protein	–	≧10 mg/kg	–	–	relative activity ([2]; in the presence of S9mix): weak
CN(C)c1ncc(/C=C/c2nc3ccc(OC(CO)CF)cc3o2)s1 (stereo not drawn) [THK-763, (E)-6-[(1-fluoromethyl-2-hydroxy)ethoxy]-2-[2-[2-dimethylamino-thiazol-5-yl]ethenyl]benzoxazole]	The white space arrow indicates amyloid β protein	–	≧10 mg/kg	–	–	relative activity ([2]; in the presence of S9mix): weak
FCCOc1ccc2nc(/C=C/c3cnc(N4CCOCC4)s3)oc2c1 [[^18F]THK-525]	–	–	–	4.7 % ID/g or ml	2.8 % ID/g or ml	–
OCC(CF)Oc1ccc2nc(/C=C/c3cnc(N4CCOCC4)s3)oc2c1 (stereo not drawn) [[^18F]THK-702]	–	–	–	4.2 % ID/g or ml	2.3 % ID/g or ml	–
OCC(CF)COc1ccc2nc(/C=C/c3cnc(N4CCOCC4)s3)oc2c1 (stereo not drawn) [[^18F]THK-727]	–	–	–	4.1 % ID/g or ml	2.9 % ID/g or ml	–
CN(C)c1ncc(/C=C/c2nc3ccc(OC(CO)CF)cc3o2)s1 (stereo not drawn) [[^18F]THK-763]	–	–	–	4.6 % ID/g or ml	3.7 % ID/g or ml	–
